Test results: patent publication US9439845B2, “Glycyrrhetinimidyl hydroxyproline alkyl esters and protected derivatives thereof” (REVLON CONSUMER PRODUCTS CORPORATION, priority 2013, dated 2016)

Experiments:
Type in all cases: cell-based
[1] = tested on: extracellular collagen I in normal human dermal fibroblasts (NHDF); assay: Extracellular Collagen I expression in fibroblasts (fiber deposition); settings: for % Control (extracellular Collagen I) / % Stimulation (extracellular Collagen I) / Mean Collagen I (fibers): 72 hours
Method: (§1) It is believed that the glycyrrhetinimidyl hydroxyproline alkyl esters of the present invention are useful for promoting collagen production in human skin. In an exemplary test, normal human dermal fibroblasts (NHDF) were cultured in culture medium for 24 hours. The medium was then replaced with culture medium containing or not (control) the test compound or the reference compound (Vitamin C) or the reference mix (Vitamin C and TGF-β). The cells were then incubated for 72 hours. After incubation, the culture medium was then collected and the cells were washed and fixed. Cells were then labeled with a primary antibody (anti-collagen I or anti-collagen III). […] An INCell Analyzer 1000 was used to take images of each well. The labeling was quantified by the measurement of the fluorescence intensity or fluorescence area normalized to the total number of cells.
(§2) A collagen release promoter, such as Vitamin C, could be used to release the intracellular collagen into the extracellular matrix. Note that in Tables 3 and 4 below, the apparent inhibition of glycyrrhetinimidyl hydroxyproline methyl ester on extracellular collagen fiber deposition is due to an artifact effect.

[2] = tested on: collagen III in normal human dermal fibroblasts (NHDF); assay: Total Collagen III expression in fibroblasts (immunofluorescence, INCell Analyzer 1000); settings: for % Control (total Collagen III) / % Stimulation (total Collagen III) / Mean Collagen III (AU): 72 hours
Method: as §1

[3] = tested on: collagen I in normal human dermal fibroblasts (NHDF); assay: Total Collagen I expression in fibroblasts (immunofluorescence, INCell Analyzer 1000); settings: for % Control (total Collagen I) / % Stimulation (total Collagen I) / Mean Collagen I (AU): 72 hours; for Mean Collagen I (AU): AU = fluorescence intensity/number of cells
Method: as §1

[4] = tested on: extracellular collagen III in normal human dermal fibroblasts (NHDF); assay: Extracellular Collagen III expression in fibroblasts (fiber deposition); settings: for % Control (extracellular Collagen III) / % Stimulation (extracellular Collagen III) / Mean Collagen III (fibers): 72 hours
Method: as §1, §2

[5] = 10 μM, apparent inhibition said to be an artifact
[6] = 30 μM, apparent inhibition said to be an artifact
[7] = qualitative analysis of the images

glycyrrhetinimidyl hydroxyproline methyl ester
% Control (extracellular Collagen I) ([1]; 3.3 μM): 102%
% Stimulation (extracellular Collagen I) ([1]; 3.3 μM): 2%
Mean Collagen I (fibers) ([1]; 3.3 μM): 63 fibers
% Control (extracellular Collagen I) [1, 5]: 79%
% Stimulation (extracellular Collagen I) [1, 5]: −21%
Mean Collagen I (fibers) [1, 5]: 48 fibers
% Control (extracellular Collagen I) [1, 6]: 70%
% Stimulation (extracellular Collagen I) [1, 6]: −30%
Mean Collagen I (fibers) [1, 6]: 43 fibers
effect on collagen I extracellular fiber deposition [1, 7]: no significant effect
extracellular release of collagen I ([1]; summary of Table 3): no significant increase
% Control (total Collagen III) ([2]; 3.3 μM): 105%
% Stimulation (total Collagen III) ([2]; 3.3 μM): 5%
Mean Collagen III (AU) ([2]; 3.3 μM): 177399 AU
% Control (total Collagen III) ([2]; 10 μM): 118%
% Stimulation (total Collagen III) ([2]; 10 μM): 18%
Mean Collagen III (AU) ([2]; 10 μM): 199984 AU
% Control (total Collagen III) ([2]; 30 μM): 142%
% Stimulation (total Collagen III) ([2]; 30 μM): 42%
Mean Collagen III (AU) ([2]; 30 μM): 240374 AU
increase of the NHDF's neosynthesis of collagen III ([2]; maximum over tested concentrations (text summary of Table 2)): up to 42%
% Control (total Collagen I) ([3]; 3.3 μM): 102%
% Stimulation (total Collagen I) ([3]; 3.3 μM): 2%
Mean Collagen I (AU) ([3]; 3.3 μM): 222721 AU
% Control (total Collagen I) ([3]; 10 μM): 97%
% Stimulation (total Collagen I) ([3]; 10 μM): −3%
Mean Collagen I (AU) ([3]; 10 μM): 210888 AU
% Control (total Collagen I) ([3]; 30 μM): 126%
% Stimulation (total Collagen I) ([3]; 30 μM): 26%
Mean Collagen I (AU) ([3]; 30 μM): 274297 AU
increase of the NHDF's neosynthesis of collagen I ([3]; maximum over tested concentrations (text summary of Table 1)): up to 26%
% Control (extracellular Collagen III) ([4]; 3.3 μM): 105%
% Stimulation (extracellular Collagen III) ([4]; 3.3 μM): 5%
Mean Collagen III (fibers) ([4]; 3.3 μM): 34 fibers
% Control (extracellular Collagen III) ([4]; 10 μM): 107%
% Stimulation (extracellular Collagen III) ([4]; 10 μM): 7%
Mean Collagen III (fibers) ([4]; 10 μM): 34 fibers
% Control (extracellular Collagen III) [4, 6]: 78%
% Stimulation (extracellular Collagen III) [4, 6]: −22%
Mean Collagen III (fibers) [4, 6]: 25 fibers
effect on collagen III extracellular fiber deposition [4, 7]: no significant effect
extracellular release of collagen III ([4]; text summary of Table 4): no significant increase
